Publication PMC9923724, “Half sandwich-type osmium, ruthenium, iridium and rhodium complexes with bidentate glycosyl heterocyclic ligands induce cytostasis in platinum-resistant ovarian cancer cells and bacteriostasis in Gram-positive multiresistant bacteria” (Frontiers in Chemistry, 2023)

Experiments:
Assay type in all cases: cell-based
A2780 cells = assay: Annexin V - propidium iodide double staining, flow cytometry; conditions: 2 h, complexes at their IC50 (Ru-7 0.846 μM, Os-7 0.578 µM, Ir-7 0.891 µM)
From the text: We verified the toxic effects of the active Ru, Os and Ir complexes by Annexin V-FITC propidium iodide (PI) double staining. The complexes were applied in concentrations corresponding to their respective IC50 values and we have not detected increases in the apoptotic (Annexin V positive population) or the necrotic (PI positive and Annexin V—PI double positive populations) as opposed to the hydrogen peroxide-treated cells used as positive control (Figure 6).
Cells were then stained with Annexin V and propidium iodide (PI) and cells were subjected to flow cytometry as described in Materials and Methods. The percent of cells in the quadrants are plotted. Data is represented as average ± SD, from three biological replicates, individual assays were performed in duplicates. Normal distribution was achieved by Box-Cox normalization of the data. Statistical significance was determined using a two-way ANOVA test, all measurement points were compared with each other. * indicate statistically significant differences between vehicle-treated (control) and treated cells (complexes or 300 µM H2O2) corresponding to the same quadrant (e.g., vehicle-treated double negative cells vs. H2O2-treated double negative cells) at p <0.05.
The proportions of dead cells was assessed using the Annexin V—propidium iodide assay and was measured using flow cytometry using BD FacsCalibur (BD Biosciences, Franklin Lakes, NJ, United States) instrument and the FITC Annexin V/Dead Cell Apoptosis kit (Life Technologies, Eugene, OR, United States) according to the manufacturer’s instructions similar to ([Bai et al., 2001]). Quadrants were set based on the FITC and PI values observed for the vehicle-treated cells. Ten thousand cells were measured and the percent in the quadrants was used for the subsequent calculation.

[1] = tested on: primary dermal fibroblasts; assay: SRB assay (48 h) on primary fibroblasts; conditions: primary human dermal fibroblasts
Experimental: (§1) 3 × 10^3 A2780 cells, 2 × 10^3 ID8 cells and 4 × 10^3 primary fibroblasts were plated to 96 well plates. Cells were treated with the compounds in the concentrations indicated for either 4 h for an MTT assay or for 48 h for an SRB assay. Data is represented as average ± SD, from three biological replicates; individual assays were performed in duplicates. Values were normalized for vehicle treated cells, absorbance for vehicle treated cells equals to 1. Statistical significance was assessed using two-way ANOVA test comparing the free ligand and each complex as a complex-ligand pair. Before the test normality was assessed using the D’Agostino-Pearson test. The ID8 SRB Ir-7+L-7 dataset had lognormal distribution. […] All other datasets had normal distribution. For better visibility the p values are presented in an excel sheet at https://figshare.com/s/2c942a812caea8869a67. Non-linear regression was performed on the A2780 SRB and the ID8 SRB datasets.
Human primary dermal fibroblasts were cultured in low glucose DMEM (1 g/L glucose) medium supplemented with 20% fetal calf serum, 2 mM glutamine, 1% penicillin-streptomycin.
(§2) The assay was performed similar to ([Kovács et al., 2019]). Cells were seeded in 96 well plates the day before the assay. Cells were treated with the compounds for 48 h. Cells were fixed with 10% trichloroacetic acid (TCA). Fixed cells were washed in distilled water 3 times followed by staining with SRB (0.4 m/V% dissolved in 1% acetic acid) for 10 min. Stained cells were washed in 1% acetic acid 5 times; acetic acid was removed and cells were left to dry. Protein-bound SRB was released by adding 100 µl 10 mM Tris base. Plates were measured in a plate photometer (Thermo Scientific Multiscan GO spectrophotometer, Waltham, MA, United States) at 540 nm. On each plate wells were designed to contain vehicle-treated cells. In calculations the readings for these wells was considered as 1 and all readings were expressed relative to these values.

[2] = tested on: cisplatin resistant A2780 cells; assay: SRB assay (48 h) on cisplatin-resistant A2780 cells; conditions: for IC50 / cisplatin resistant A2780 SRB Max. (maximal inhibition): cisplatin resistant A2780 cells, SRB, 48 h
Experimental: 6 × 10^3 cisplatin-resistant A2780 cells were plated to 96 well plates. Cells were treated with the compounds in the concentrations indicated for either 4 h for an MTT assay or for 48 h for an SRB assay. Data is represented as average ± SD, from three biological replicates; individual assays were performed in duplicates. Values were normalized for vehicle treated cells, absorbance for vehicle treated cells equals to 1. Each compound was assessed individually. Normality was assessed using the Shapiro-Wilk test. […] Statistical significance was assessed using One-way ANOVA test comparing all points to the smallest concentration. For better visibility the p values are presented in an excel sheet at https://figshare.com/s/2c942a812caea8869a67. Non-linear regression was performed on the results of the SRB assay datasets.
Cisplatin resistant cells underwent selection (1 µM cisplatin) once a week for 3 days before plating for any assay.
as §2
Statistical analysis was performed using 8.0.1 version of Graphpad Prism. Values were tested for normal distribution using the D’Agostino and Pearson normality test. When necessary, values were log normalized or were normalized using the Box-Cox normalization method ([Box and Cox, 1964]) as indicated in the figure captions.

[3] = tested on: A2780 ovarian cancer cells; assay: SRB assay (cytostasis, 48 h) on A2780 cells; conditions: 48 h treatment
Experimental: First, we assessed a set of osmium complexes (similar to Ia [[Kacsir et al., 2022]) in Figure 1] and their sugar-derived ligands, in which the benzoyl protective groups on the carbohydrate moiety were replaced by aliphatic acyl groups of different chain length (straight chain C3-C7–CO). Osmium was selected as a central ion, since osmium complexes had the best biological activity in our previous studies ([Balázs et al., 2022]; [Kacsir et al., 2022]). These compounds were tested on A2780 ovarian cancer cells for toxicity and cytostasis. The therapy of ovarian cancer is centered around platinum compounds ([Brown et al., 2019]; [Sipos et al., 2021]), therefore, it was logical to use a cellular model of ovarian cancer for the initial testing of the compounds. Toxicity was assessed using the MTT assay that measures the activity of mitochondrial complex I. We chose 4 h long treatment as in an MTT assay this time point is suitable to detect rapid, direct toxicity. Cytostasis was assessed after 48 h of treatment using the SRB assay that assesses protein content that corresponds to cell count. The characteristics of the compounds are detailed in Table 2.
3 × 10^3 A2780 cells, were plated to 96 well plates. Cells were treated with the compounds in the concentrations indicated for either 4 h for an MTT assay or for 48 h for an SRB assay. Data is represented as average ± SD, from three biological replicates; individual assays were performed in duplicates. Values were normalized for vehicle treated cells, absorbance for vehicle treated cells equals to 1. […] Except for the Os-6 complex, Two-way ANOVA test was performed and all values were compared with each other (Tukey’s post hoc test). […] Non-linear regression was performed on the data.
as §1, §2
Statistical analysis was performed using 8.0.1 version of Graphpad Prism. Values were tested for normal distribution using the D’Agostino and Pearson normality test. When necessary, values were log normalized or were normalized using the Box-Cox normalization method ([Box and Cox, 1964]) as indicated in the figure captions. […]

For `Cc1c(C)c(C)[c-](C)c1C.F[P-](F)(F)(F)(F)F.O=C(OCC1OC(n2cc(-c3ccc4ccccc4n3)nn2)C(OC(=O)c2ccccc2)C(OC(=O)c2ccccc2)C1OC(=O)c1ccccc1)c1ccccc1.[Cl][Ir+2]` (mixture of isomers) [Ir-7], which “induction of cell death (apoptotic / necrotic populations)” value (A2780 cells) is on record?
Its value is “do not induce cell death”.

And the “Fibroblast SRB Max. (maximal inhibition)” value [1]?
The value was 42.83%.

What about the IC50 [2] of the same compound?
The IC50 was 1.54 µM.

And the “cisplatin resistant A2780 SRB Max. (maximal inhibition)” value [2]?
The value was over 90%.

What about the “A2780 SRB IC50” value [3] of the same compound?
Its value is “submicromolar or low micromolar”.

And the “A2780 SRB Max. (maximal inhibition)” value [3]?
Its value is over 90%.

What about the IC50 [3] of the same compound?
Its IC50 is 0.891 µM.

Which “induction of cell death (apoptotic / necrotic populations)” value (A2780 cells) does the source give for `Cc1ccc(C(C)C)cc1.F[P-](F)(F)(F)(F)F.O=C(OCC1OC(n2cc(-c3ccc4ccccc4n3)nn2)C(OC(=O)c2ccccc2)C(OC(=O)c2ccccc2)C1OC(=O)c1ccccc1)c1ccccc1.[Cl][Ru+]` (mixture of isomers) [Ru-7] here?
Its value is “do not induce cell death”.

And the “Fibroblast SRB Max. (maximal inhibition)” value [1]?
The value was 50.04%.

What about the IC50 [2] of the same compound?
The IC50 was 1.18 µM.

What about the “cisplatin resistant A2780 SRB Max. (maximal inhibition)” value [2] of the same compound?
The value was over 90%.

And the “A2780 SRB IC50” value [3]?
The value was “submicromolar or low micromolar”.

And the “A2780 SRB Max. (maximal inhibition)” value [3]?
The value was over 90%.

What about the IC50 [3] of the same compound?
The IC50 was 0.847 µM.

`Cc1ccc(C(C)C)cc1.F[P-](F)(F)(F)(F)F.O=C(OCC1OC(n2cc(-c3ccc4ccccc4n3)nn2)C(OC(=O)c2ccccc2)C(OC(=O)c2ccccc2)C1OC(=O)c1ccccc1)c1ccccc1.[Cl][Os+]` (mixture of isomers) [Os-7] was tested. Which “induction of cell death (apoptotic / necrotic populations)” value (A2780 cells) did it give?
Its value is “do not induce cell death”.

What about the “Fibroblast SRB Max. (maximal inhibition)” value [1] of the same compound?
The value was 48.94%.

And the “fold change of IC50, cisplatin resistant vs cisplatin sensitive A2780” value ([2]; SRB assays, resistant / sensitive A2780)?
The value was “technically unchanged”.

And the IC50 [2]?
Its IC50 is 0.476 µM.

And the “cisplatin resistant A2780 SRB Max. (maximal inhibition)” value [2]?
The value was over 90%.

What about the “A2780 SRB IC50” value [3] of the same compound?
The value was “submicromolar or low micromolar”.

And the “A2780 SRB Max. (maximal inhibition)” value [3]?
The value was over 90%.

And the IC50 [3]?
The IC50 was 0.578 µM.
